Assay results reported in ChEMBL document CHEMBL2346657, “Synthesis of novel 2-amino-4-(5'-substituted 2'-phenyl-1H-indol-3'-yl)-6-aryl-4H-pyran-3-carbonitrile derivatives as antimicrobial and antioxidant agents” (2013).
Calls of active or inactive are those of the source. No rule for the calls is given here.

system: Aspergillus niger; experiment: Antimicrobial activity against Aspergillus niger MTCC 281 at 500 ug/ml after 72 hrs by cup plate method; assay type: functional; conditions: MTCC 281, 72 h, read-out: IZ

SMILES | zone of inhibition at 500 µg/mL
N#Cc1c(N)c2c(N)c3c(nc2oc1=O)OC(c1ccc(Cl)cc1)=CC3c1c(-c2ccccc2)[nH]c2ccccc12 (stereo not given) | 7 mm

system: not listed separately; experiment: Antioxidant activity assessed as metal chelating activity by measuring inhibition of ferrozine-Fe2+ complex formation at 25 to 100 ug/ml; assay type: functional; conditions: not given

SMILES | Activity
N#Cc1c(N)c2c(N)c3c(nc2oc1=O)OC(c1ccc(Cl)cc1)=CC3c1c(-c2ccccc2)[nH]c2ccccc12 (stereo not given) | Active

system: Escherichia coli; experiment: Antimicrobial activity against Escherichia coli MTCC 723 at 750 ug/ml after 24 hrs by cup plate method; assay type: functional; conditions: MTCC 723, 24 h, read-out: IZ

SMILES | zone of inhibition at 750 µg/mL
N#Cc1c(N)c2c(N)c3c(nc2oc1=O)OC(c1ccc(Cl)cc1)=CC3c1c(-c2ccccc2)[nH]c2ccccc12 (stereo not given) | 3 mm

system: Aspergillus flavus; experiment: Antimicrobial activity against Aspergillus flavus MTCC 1973 at 1000 ug/ml after 72 hrs by cup plate method; assay type: functional; conditions: MTCC 1973, 72 h, read-out: IZ

SMILES | zone of inhibition at 1000 µg/mL
N#Cc1c(N)c2c(N)c3c(nc2oc1=O)OC(c1ccc(Cl)cc1)=CC3c1c(-c2ccccc2)[nH]c2ccccc12 (stereo not given) | 8 mm

system: Aspergillus terreus; experiment: Antimicrobial activity against Aspergillus terreus MTCC 1782 at 750 ug/ml after 72 hrs by cup plate method; assay type: functional; conditions: MTCC 1782, 72 h, read-out: IZ

SMILES | zone of inhibition at 750 µg/mL
N#Cc1c(N)c2c(N)c3c(nc2oc1=O)OC(c1ccc(Cl)cc1)=CC3c1c(-c2ccccc2)[nH]c2ccccc12 (stereo not given) | 10 mm

system: Klebsiella pneumoniae; experiment: Antimicrobial activity against Klebsiella pneumoniae NCTC 13368 at 750 ug/ml after 24 hrs by cup plate method; assay type: functional; conditions: NCTC 13368, 24 h, read-out: IZ

SMILES | zone of inhibition at 750 µg/mL
N#Cc1c(N)c2c(N)c3c(nc2oc1=O)OC(c1ccc(Cl)cc1)=CC3c1c(-c2ccccc2)[nH]c2ccccc12 (stereo not given) | 13 mm

system: Aspergillus niger; experiment: Antimicrobial activity against Aspergillus niger MTCC 281 at 1000 ug/ml after 72 hrs by cup plate method; assay type: functional; conditions: MTCC 281, 72 h, read-out: IZ

SMILES | zone of inhibition at 1000 µg/mL
N#Cc1c(N)c2c(N)c3c(nc2oc1=O)OC(c1ccc(Cl)cc1)=CC3c1c(-c2ccccc2)[nH]c2ccccc12 (stereo not given) | 5 mm

system: Staphylococcus aureus; experiment: Antimicrobial activity against Staphylococcus aureus ATCC 29513 at 750 ug/ml after 24 hrs by cup plate method; assay type: functional; conditions: ATCC 29513, 24 h, read-out: IZ

SMILES | zone of inhibition at 750 µg/mL
N#Cc1c(N)c2c(N)c3c(nc2oc1=O)OC(c1ccc(Cl)cc1)=CC3c1c(-c2ccccc2)[nH]c2ccccc12 (stereo not given) | 11 mm

system: Aspergillus niger; experiment: Antimicrobial activity against Aspergillus niger MTCC 281 at 750 ug/ml after 72 hrs by cup plate method; assay type: functional; conditions: MTCC 281, 72 h, read-out: IZ

SMILES | zone of inhibition at 750 µg/mL
N#Cc1c(N)c2c(N)c3c(nc2oc1=O)OC(c1ccc(Cl)cc1)=CC3c1c(-c2ccccc2)[nH]c2ccccc12 (stereo not given) | 5 mm

system: Pseudomonas aeruginosa; experiment: Antimicrobial activity against Pseudomonas aeruginosa MTCC 1688 at 750 ug/ml after 24 hrs by cup plate method; assay type: functional; conditions: MTCC 1688, 24 h, read-out: IZ

SMILES | zone of inhibition at 750 µg/mL
N#Cc1c(N)c2c(N)c3c(nc2oc1=O)OC(c1ccc(Cl)cc1)=CC3c1c(-c2ccccc2)[nH]c2ccccc12 (stereo not given) | 9 mm

system: Aspergillus oryzae; experiment: Antimicrobial activity against Aspergillus oryzae MTCC 3567 at 750 ug/ml after 72 hrs by cup plate method; assay type: functional; conditions: MTCC 3567, 72 h, read-out: IZ

SMILES | zone of inhibition at 750 µg/mL
N#Cc1c(N)c2c(N)c3c(nc2oc1=O)OC(c1ccc(Cl)cc1)=CC3c1c(-c2ccccc2)[nH]c2ccccc12 (stereo not given) | 13 mm

system: Escherichia coli; experiment: Antimicrobial activity against Escherichia coli MTCC 723 at 500 ug/ml after 24 hrs by cup plate method; assay type: functional; conditions: MTCC 723, 24 h, read-out: IZ

SMILES | zone of inhibition at 500 µg/mL
N#Cc1c(N)c2c(N)c3c(nc2oc1=O)OC(c1ccc(Cl)cc1)=CC3c1c(-c2ccccc2)[nH]c2ccccc12 (stereo not given) | 3 mm

system: Escherichia coli; experiment: Antimicrobial activity against Escherichia coli MTCC 723 at 1000 ug/ml after 24 hrs by cup plate method; assay type: functional; conditions: MTCC 723, 24 h, read-out: IZ

SMILES | zone of inhibition at 1000 µg/mL
N#Cc1c(N)c2c(N)c3c(nc2oc1=O)OC(c1ccc(Cl)cc1)=CC3c1c(-c2ccccc2)[nH]c2ccccc12 (stereo not given) | 12 mm

system: Staphylococcus aureus; experiment: Antimicrobial activity against Staphylococcus aureus ATCC 29513 at 1000 ug/ml after 24 hrs by cup plate method; assay type: functional; conditions: ATCC 29513, 24 h, read-out: IZ

SMILES | zone of inhibition at 1000 µg/mL
N#Cc1c(N)c2c(N)c3c(nc2oc1=O)OC(c1ccc(Cl)cc1)=CC3c1c(-c2ccccc2)[nH]c2ccccc12 (stereo not given) | 12 mm

system: Aspergillus terreus; experiment: Antimicrobial activity against Aspergillus terreus MTCC 1782 at 1000 ug/ml after 72 hrs by cup plate method; assay type: functional; conditions: MTCC 1782, 72 h, read-out: IZ

SMILES | zone of inhibition at 1000 µg/mL
N#Cc1c(N)c2c(N)c3c(nc2oc1=O)OC(c1ccc(Cl)cc1)=CC3c1c(-c2ccccc2)[nH]c2ccccc12 (stereo not given) | 11 mm

system: Klebsiella pneumoniae; experiment: Antimicrobial activity against Klebsiella pneumoniae NCTC 13368 at 1000 ug/ml after 24 hrs by cup plate method; assay type: functional; conditions: NCTC 13368, 24 h, read-out: IZ

SMILES | zone of inhibition at 1000 µg/mL
N#Cc1c(N)c2c(N)c3c(nc2oc1=O)OC(c1ccc(Cl)cc1)=CC3c1c(-c2ccccc2)[nH]c2ccccc12 (stereo not given) | 13 mm

system: Aspergillus flavus; experiment: Antimicrobial activity against Aspergillus flavus MTCC 1973 at 750 ug/ml after 72 hrs by cup plate method; assay type: functional; conditions: MTCC 1973, 72 h, read-out: IZ

SMILES | zone of inhibition at 750 µg/mL
N#Cc1c(N)c2c(N)c3c(nc2oc1=O)OC(c1ccc(Cl)cc1)=CC3c1c(-c2ccccc2)[nH]c2ccccc12 (stereo not given) | 0 mm

system: Aspergillus terreus; experiment: Antimicrobial activity against Aspergillus terreus MTCC 1782 at 500 ug/ml after 72 hrs by cup plate method; assay type: functional; conditions: MTCC 1782, 72 h, read-out: IZ

SMILES | zone of inhibition at 500 µg/mL
N#Cc1c(N)c2c(N)c3c(nc2oc1=O)OC(c1ccc(Cl)cc1)=CC3c1c(-c2ccccc2)[nH]c2ccccc12 (stereo not given) | 10 mm

system: Aspergillus oryzae; experiment: Antimicrobial activity against Aspergillus oryzae MTCC 3567 at 500 ug/ml after 72 hrs by cup plate method; assay type: functional; conditions: MTCC 3567, 72 h, read-out: IZ

SMILES | zone of inhibition at 500 µg/mL
N#Cc1c(N)c2c(N)c3c(nc2oc1=O)OC(c1ccc(Cl)cc1)=CC3c1c(-c2ccccc2)[nH]c2ccccc12 (stereo not given) | 12 mm

system: Aspergillus flavus; experiment: Antimicrobial activity against Aspergillus flavus MTCC 1973 at 500 ug/ml after 72 hrs by cup plate method; assay type: functional; conditions: MTCC 1973, 72 h, read-out: IZ

SMILES | zone of inhibition at 500 µg/mL
N#Cc1c(N)c2c(N)c3c(nc2oc1=O)OC(c1ccc(Cl)cc1)=CC3c1c(-c2ccccc2)[nH]c2ccccc12 (stereo not given) | 0 mm

system: Pseudomonas aeruginosa; experiment: Antimicrobial activity against Pseudomonas aeruginosa MTCC 1688 at 1000 ug/ml after 24 hrs by cup plate method; assay type: functional; conditions: MTCC 1688, 24 h, read-out: IZ

SMILES | zone of inhibition at 1000 µg/mL
N#Cc1c(N)c2c(N)c3c(nc2oc1=O)OC(c1ccc(Cl)cc1)=CC3c1c(-c2ccccc2)[nH]c2ccccc12 (stereo not given) | 9 mm

system: Klebsiella pneumoniae; experiment: Antimicrobial activity against Klebsiella pneumoniae NCTC 13368 at 500 ug/ml after 24 hrs by cup plate method; assay type: functional; conditions: NCTC 13368, 24 h, read-out: IZ

SMILES | zone of inhibition at 500 µg/mL
N#Cc1c(N)c2c(N)c3c(nc2oc1=O)OC(c1ccc(Cl)cc1)=CC3c1c(-c2ccccc2)[nH]c2ccccc12 (stereo not given) | 13 mm

system: Pseudomonas aeruginosa; experiment: Antimicrobial activity against Pseudomonas aeruginosa MTCC 1688 at 500 ug/ml after 24 hrs by cup plate method; assay type: functional; conditions: MTCC 1688, 24 h, read-out: IZ

SMILES | zone of inhibition at 500 µg/mL
N#Cc1c(N)c2c(N)c3c(nc2oc1=O)OC(c1ccc(Cl)cc1)=CC3c1c(-c2ccccc2)[nH]c2ccccc12 (stereo not given) | 10 mm

system: Staphylococcus aureus; experiment: Antimicrobial activity against Staphylococcus aureus ATCC 29513 at 500 ug/ml after 24 hrs by cup plate method; assay type: functional; conditions: ATCC 29513, 24 h, read-out: IZ

SMILES | zone of inhibition at 500 µg/mL
N#Cc1c(N)c2c(N)c3c(nc2oc1=O)OC(c1ccc(Cl)cc1)=CC3c1c(-c2ccccc2)[nH]c2ccccc12 (stereo not given) | 12 mm

system: Aspergillus oryzae; experiment: Antimicrobial activity against Aspergillus oryzae MTCC 3567 at 1000 ug/ml after 72 hrs by cup plate method; assay type: functional; conditions: MTCC 3567, 72 h, read-out: IZ

SMILES | zone of inhibition at 1000 µg/mL
N#Cc1c(N)c2c(N)c3c(nc2oc1=O)OC(c1ccc(Cl)cc1)=CC3c1c(-c2ccccc2)[nH]c2ccccc12 (stereo not given) | 13 mm
